Laboratory results: patent publication US20260284041A1, “PREVENTIVE OR THERAPEUTIC AGENT FOR NEURODEGENERATIVE DISEASE” (MEDILABO RFP, INC., priority 2023, published 2026)
≈ marks a conversion by molar mass, not a printed value.

Assays:
[1] = system: FTD/ALS model mice; experiment: Morris water maze test after nasal rifampicin and/or resveratrol (Test Example 2); type: in vivo, mouse; conditions: 1 month, 7- to 8-month-old mice, single agents 0.04 mg/day, combination 0.02 mg + 0.02 mg/day, FIG. 10
Description: FVB/NJ-Tg(C9orf72)500Lpwr/J mice (FTD/ALS model mice) were purchased from The Jackson Laboratory (Bar Harbor, ME, USA). The mouse strain was generated as a model for the C9orf72-associated FTD/ALS expressing the human C9orf72 gene with about 500 hexanucleotide (GGGGCC) repeats using a bacterial artificial chromosome (BAC) vector. Transgenic (Tg) mice were crossed with wild-type FVB/NJcl mice, and the transgene was maintained as a heterozygote at our animal facility.
(§1) Age-matched non-Tg […] mates received only CMC.
After administration for one month, the cognitive function of the mice was assessed in the Morris water maze test as described above.

[2] = system: phospho-PKR (Thr446); experiment: Immunohistochemical studies of phosphorylated PKR (Test Example 1); type: in vivo, mouse; conditions: PFC and MC; nasal 0.1 mg/day for 1 month; FIG. 8B
Protocol: (§2) 4-and-a half to 5-month-old FTD/ALS model mice were divided into two groups. […] Non-Tg littermates were treated with CMC alone. […] After the behavioral test, each group was divided into two groups: one group for immunohistochemical analysis and the other group for future biochemical analysis. For immunohistochemical analysis, brain sections were prepared as described above, while for biochemical analysis, whole brains were removed and frozen at −80° C. until use.

[3] = system: (GGGGCC)4 oligonucleotides; experiment: Gel shift assay for G-quadruplex; type: biochemical; conditions: 1 mM rifampicin, 5 μM DNA, 100 mM KCl; FIG. 8A
Protocol: The gel shift assay to detect G-quadruplex formation was performed. Sense (GGGGCC)4, antisense (GGCCCC)4, and Control (ATGC)6 oligonucleotides were synthesized and solubilized to 100 μM in 0.89 M of Tris-borate buffer, pH8.3 containing 0.02 M of EDTA (TBE). […] The mixtures were incubated at 98° C. for 3 min and slowly cooled to room temperature. The samples were mixed with Blue/Orange Loading Dye (Promega Corporation, Madison, WI, USA) and subjected to native PAGE with 20% polyacrylamide gel (Novex TBE Gels, Invitrogen, Carlsbad, CA, USA) and TBE running buffer containing 50 mM KCl. The gels were stained with SYBR Gold nucleic acid gel stain (Invitrogen) for 10 min, and images were acquired using an ImageQuant LAS 500 image analyzer (GE Healthcare, Hino, Japan).

[4] = system: FTD/ALS model mice (C9-500 mice); experiment: Morris water maze test after nasal rifampicin (Test Example 1); type: in vivo, mouse; conditions: nasal 0.1 mg/day for 1 month; Tg mice 4.5 to 5 months old at start; vs CMC-treated Tg (p=0.0271, FIG. 4)
Description: FVB/NJ-Tg(C9orf72)500Lpwr/J mice were purchased from The Jackson Laboratory (Bar Harbor, ME, USA). The mouse strain was generated as a model for the C9orf72-linked FTD/ALS expressing the human C9orf72 gene with 500 hexanucleotide (GGGGCC) repeats (hereinafter, it is also described as “FTD/ALS model mice”) using a bacterial artificial chromosome (BAC) vector. Transgenic (Tg) mice were crossed with wild-type FVB/NJcl mice, and the transgene was maintained as a heterozygote at the animal facility in our company.
The cognitive function of the mice was assessed in a Morris water maze test at the age of 4.5 months, and the motor function of the mice was assessed in the rotarod and inverted screen tests at the age of 4.5 months and at the age of 12 months in an above-described manner.
as §2

[5] = system: FTD/ALS model mice (C9-500 mice); experiment: Double staining for RNA foci and cytoplasmic inclusions (Test Example 1); type: in vivo, mouse; conditions: PFC and MC; nasal 0.1 mg/day for 1 month; FIG. 6
Description: To examine the formation of nuclear and cytoplasmic inclusions, the sections were double stained with antibodies to G-quadruplex and hnRNP H1 (Proteintech, Rosemont, IL, USA) without pretreatment for RNA foci, and pSer409/410-TDP-43 and amyloidogenic protein oligomers (F11G3; Sigma-Aldrich) after pretreatment at pH6 for TDP-43 oligomer inclusions. For DPR inclusions, the sections were double-stained with antibodies to poly-GA, poly-GP, poly-GR, and SQSTM1/p62 (A-6; Santa Cruz Biotechnology, Dallas, TX, USA) without pretreatment. After staining, FITC- and rhodamine-labeled secondary antibodies (Jackson Laboratory) were used. The specimens were then treated with TrueBlack Plus Lipofuscin (Biotium, Fremont, CA, USA) to quench the autofluorescence and mounted using a Vectashield vibrance antifade mounting medium with DAPI (Vector Laboratories). Images of the stained sections were taken with a BZ-X800 fluorescence microscope, and cells having inclusion bodies were counted in a certain area.
as §2

[6] = system: C9orf72 HRE-derived RNAs; conditions: in vitro; cited from earlier work
[7] = system: BDNF; conditions: stated in discussion, no method given; cited from earlier work
[8] = system: FTD/ALS model mice; experiment: Immunohistochemical analysis of brain sections (Test Example 2); type: in vivo, mouse; conditions: single agents 0.04 mg/day, combination 0.02+0.02 mg/day, nasal 1 month
Protocol: as §1
After the behavioral test, each group was divided into two groups: one for immunohistochemical analysis and the other for future biochemical analysis. Immunohistochemical staining was performed as described above. For staining of double-stranded RNA-dependent protein kinase (PKR), phosphorylated TDP-43, synaptophysin, sections were boiled in 10 mM citrate buffer solution (pH6) for 30 min to expose the antigens. The sections were blocked overnight with 10% calf serum, and then the resultant sections were stained with antibodies for DNA/RNA G-quadruplex (BG4; Absolute antibody, Cleveland, UK), phospho-PKR (Thr446) (MilliporeSigma, Burlington, MA, USA), poly-GA, poly-GP (Cosmo Bio Co., Ltd., Tokyo, Japan), pSer409/410-TDP-43 (Cosmo Bio Co., Ltd.), and synaptophysin (SVP-38; Sigma-Aldrich, St. Luis, MO, USA). Only synaptophysin was stained with a biotin-labeled secondary antibody (Vector Laboratories, Burlingame, CA, USA), a horseradish peroxidase (HRP)-labeled avidin-biotin complex (Vector Laboratories), HRP substrate, diaminobenzidine (DAB), or an FITC-labeled secondary antibody (The Jackson Laboratory). […] Neuropathologies were evaluated by measuring the staining intensity or area or by counting positive puncta or cells in a constant area in each photograph using NIH ImageJ software.

[9] = cited from earlier work
[10] = system: PKR; conditions: reported in NPL 31; cited from earlier work

SMILES: CO[C@H]1/C=C/O[C@@]2(C)Oc3c(C)c(O)c4c(O)c(c(/C=N/N5CCN(C)CC5)c(O)c4c3C2=O)NC(=O)/C(C)=C\C=C\[C@H](C)[C@H](O)[C@@H](C)[C@@H](O)[C@@H](C)[C@H](OC(C)=O)[C@@H]1C [rifampicin, 3-(4-Methylpiperazinyliminomethyl)rifamycin SV]
- cognitive function, Morris water maze [1]: improved the cognitive function in the mice, but the effect was incomplete and not significant
- levels of phosphorylated PKR [2]: significantly attenuated
- inhibition of G-quadruplex formation [3]: failed to inhibit
- memory performance (cognitive function), water maze test [4]: significantly improved
- DPR cytoplasmic inclusions (DPRs and p62 double positive) [5]: significantly attenuated
- TDP-43 oligomer cytoplasmic inclusions (pTDP-43 and F11G3 double positive) [5]: significantly attenuated
- formation of RNA foci (G-quadruplex and hnRNP H double positive) [5]: significantly attenuated

SMILES: COc1cccc2c1C(=O)c1c(O)c3c(c(O)c1C2=O)C[C@@](O)(C(=O)CO)C[C@@H]3O[C@H]1C[C@H](N)[C@H](O)[C@H](C)O1 [doxorubicin]
- RNA gelation and RNA foci formation [6]: inhibited

SMILES: Oc1ccc(/C=C/c2cc(O)cc(O)c2)cc1 [resveratrol, 3,5,4′-trihydroxy-trans-stilbene]
- cognitive function, Morris water maze [1]: significantly improved
- expression of BDNF in the mouse brains [7]: elicited
- synaptophysin levels (synaptic loss) ([8]; hippocampus CA2-3 region and dentate gyrus (DG), FIG. 11): significantly restored
- levels of G-quadruplex ([8]; prefrontal cortex, FIG. 12): significantly reduced
- levels of phosphorylated PKR ([8]; prefrontal cortex, FIG. 13): significantly reduced
- levels of poly-GA and poly-GP ([8]; prefrontal cortex, FIG. 14): significantly reduced
- levels of phosphorylated TDP-43 ([8]; prefrontal cortex, FIG. 15): significantly reduced
- solubility in water [9]: 30 µg/mL (≈ 131 µM)

SMILES: CN(C)C(=N)N=C(N)N [metformin]
- RAN translation / PKR phosphorylation and phenotype of C9-500 mice [10]: suppress RAN translation by suppressing PKR phosphorylation

SMILES: CC(=O)O.N [ammonium acetate]
- RNA gelation and RNA foci formation [6]: inhibited
